Numbers after ± are expanded uncertainties.

The data set in a line: Boiling temperature at pressure P. As to conditions: 101 kPa; Liquid; Ebulliometric method (Recirculating still).
For `O=Cc1ccco1` [2-furaldehyde], the “Boiling temperature at pressure P” value was determined as 162 ± 1.6 °C. With `OC1CCCC1` [cyclopentanol] the figure was 139.4 ± 1.6 °C; with `CCOC(C)=O` [ethyl acetate], 77.1 ± 1.6 °C. In the case of `CC(=O)CC(C)C` [4-methylpentan-2-one], the “Boiling temperature at pressure P” value was 117.4 ± 1.6 °C.

The values are drawn from the NIST ThermoML archive (doi:10.1016/j.fluid.2014.07.011).
